{
  "source": "patent US20110070269A1",
  "about": "“LIPOPOLYSACCHARIDE ISOLATED FROM PYRULARIA TISSUE AND/OR PYRULARIA-ASSOCIATED BACTERIA AND USES THEREOF” (THERAPRO TECHNOLOGIES, INC., priority 2009, published 2011)",
  "key": {"Balb/C mice [1]": {"test_system": "Balb/C mice", "test": "Prevention of drug-induced (melphalan) toxic death", "format": "in vivo, mouse", "conditions": "melphalan 100 mg/kg i.p. alone", "method": "The effect of PyEx upon myelocyte stimulation was also observed in vivo as prevention of drug-induced myelosuppression. […] A separate group received melphalan (100 mg/kg, i.p.) and PyEx-1 (10 μg/mouse, subcutaneously). PyEx-1 was given immediately after or as late as 18 hours after melphalan administration, and every 48 hours thereafter."}, "bone marrow cells": {"test_system": "bone marrow cells", "test": "Bone marrow cell viability (propidium iodide exclusion)", "format": "cell-based", "conditions": "mouse, 3 mM", "method": "Cells (200 μL, prepared as described above) were collected after gentle trituration to resuspend cells. Each aliquot was diluted with 1 mL PBS, centrifuged to pellet the cells, and the supernatant liquid was removed. The washed cells were sequentially stained in the dark at 4° C. for 15 minutes with anti-CD16/32 to prevent non-specific labeling, then for 45 minutes with either anti-Mac-1-FITC×anti-Mac-1-PE or with Gr-1-FITC×Mac-1-PE. Cells were washed once at 4° C. with 1 mL of PBS and then resuspended in 1 mL of PBS. Human cells were labeled with anti-Mac-1 as above or with anti-Mac-1-FITC×anti-CD14. A Coulter EPICS-XL™ flow cytometer was used to enumerate dual, positively-staining control sub-populations and detection of nascent stimulated sub-populations. Activated sub-populations, which labeled with more intensity along the y-axis in Gr-I-FITC×Mac-1-PE, were designated as Mac-1^+hi. Control unactivated cells that also stained positively in both dimensions were designated, Mac-1^+lo. Dead cells were eliminated from analysis by prior staining with propidium iodide. Approximately 15-20×10^3 cells were counted for each analysis. Percent of cells activated was determined as:\nOver 15×10^3 cells were analyzed for each sample. Bone marrow cell viability among all samples including the untreated control was 70-76% as determined by propidium iodide exclusion."}, "murine bone marrow cells": {"test_system": "murine bone marrow cells", "test": "Bone marrow activation assay (flow cytometry, percent of cells activated)", "format": "cell-based, mouse", "conditions": "3 mM", "method": "Bone marrow was flushed from the femurs of Balb/C mice with RPMI medium. Cells were collected by centrifugation and the pellet treated with 1 mL of red cell lysis buffer (as described above) for five minutes at 25° C., followed by dilution with 12 mL of RPMI media. Cells were washed by two cycles of centrifugation and resuspension in RPMI. On the final wash, cells were counted using a hemocytometer and the final pellet was resuspended to 4×10^6 cells/mL with RPMI media for use in activation assays, which were quantitated by flow cytometric analysis (described below).\nCells (200 μL, prepared as described above) were collected after gentle trituration to resuspend cells. Each aliquot was diluted with 1 mL PBS, centrifuged to pellet the cells, and the supernatant liquid was removed. The washed cells were sequentially stained in the dark at 4° C. for 15 minutes with anti-CD16/32 to prevent non-specific labeling, then for 45 minutes with either anti-Mac-1-FITC×anti-Mac-1-PE or with Gr-1-FITC×Mac-1-PE. Cells were washed once at 4° C. with 1 mL of PBS and then resuspended in 1 mL of PBS. Human cells were labeled with anti-Mac-1 as above or with anti-Mac-1-FITC×anti-CD14. […] Approximately 15-20×10^3 cells were counted for each analysis. Percent of cells activated was determined as: […]"}, "Balb/C mice [2]": {"test_system": "Balb/C mice", "test": "In vivo neutropenia model (sub-lethal cyclophosphamide)", "set-up": "species or system mouse", "conditions": "day five", "method": "Eighteen to twenty-four hours later (day 1), control mice received an injection of saline and the PyEx group received a single dose of PyEx (20 μg/mouse). Mice were bled sequentially via the retro-orbital sinus or tail vein at various times thereafter. Blood was collected in heparinized capillary tubes.\nFor determination of total versus white cells, blood was diluted into Isoton II (Beckman-Coulter, Fullerton, Calif.). Total cells and white cells were counted using a Model ZM Coulter counter (Beckman-Coulter, Fullerton, Calif.). White cell counts were determined following treatment of whole blood with a RBC lytic reagent (Zap-Oglobin, Beckman-Coulter, Fullerton, Calif.). Blood granulocytes and myelocytes were quantitated by means of an EPICS-XL™ flow cytometry after lysis of red cells.\nTo more clearly determine what populations of cells were stimulated by treatment with PyEx, in a similar experiment blood and bone marrow cells were collected and analyzed for total blood granulocytes and myelocytes. […] PyEx-1 (20 μg/mouse) was given to mice 24 hours after administration of CP. Blood from PyEx-1 treated experimental and saline treated control mice was collected with heparinized capillary tubes five days after CP administration. Following lysis of red cells, the remaining cells were analyzed by means of an EPICS-XL™ flow cytometer (Beckman-Coulter, Fullerton, Calif.). […]"}, "[3]": {"test": "Physical analysis: stability of the immunostimulatory/mitogenic activity", "format": "physicochemical", "conditions": "proteinase K 50 μg/ml, 10 mM Tris pH 8.0, 10 mM EDTA, 0.5% SDS, 56° C., 30 minutes", "method": "A mitogenic assay was used as a measure of immunostimulation. For the mitogen assay, isolated cells were diluted to 1.5×10^6 cells/mL. Aliquots of cells (200 μL/well) were incubated in sterile 96-well plates for 24 to 48 hours prior to the addition of 1 μCi/well of [^3H]thymidine. Radiolabeled DNA was collected on glass fiber filters by means of an Inotech cell harvester (Rockville, Md.) and associated radioactivity was determined by means of an Inotech radiometric instrument or by scintillation counting of individual filters. TLF-D, a proprietary reagent, was utilized at 10 μg/ml to amplify the mitogenic activity of Pyrularia extract (PyEx) in a synergistic fashion."}, "human bone marrow cells": {"test_system": "human bone marrow cells", "test": "Activation of human bone marrow (Mac-1 x CD14 flow cytometry)", "format": "cell-based", "conditions": "5 ng/mL, fresh marrow from normal donor", "method": "Human bone marrow was provided by the Bone Marrow Transplantation Unit, University of Utah. Experiments were initiated upon obtaining fresh marrow from normal donors. Whole marrow was treated as described above for murine marrow samples. Following incubation for 24 to 36 hours with PyEx or other agents as described, cells were stained with anti-Mac-1-FITC×anti-CD14-PE. Cells were analyzed using a Coulter EPICS-XL™ flow cytometer (Beckman-Coulter, Fullerton, Calif.). Activated populations were identified by positive staining with Mac-1×CD14 (designated Mac-1^+, CD14^+)."}},
  "data": [
    {"compound": "N[C@@H](Cc1ccc(N(CCCl)CCCl)cc1)C(=O)O", "note": "[Melphalan, melphalan]", "values": [
      {"measurement": "Average time of death", "setting": "Balb/C mice [1]", "result": "day 7"},
      {"measurement": "Drug related deaths/# in group", "setting": "Balb/C mice [1]", "result": "3/6"},
      {"measurement": "Average time of death", "setting": "Balb/C mice [1]; listed as melphalan", "result": "eight"}
    ]},
    {"compound": "CC(=O)CCCCn1c(=O)c2c(ncn2C)n(C)c1=O", "note": "[pentoxifylline]", "values": [
      {"measurement": "Viability", "setting": "bone marrow cells", "result": 61.5, "unit": "%"},
      {"measurement": "Activation", "setting": "murine bone marrow cells", "result": 7.54, "unit": "%"}
    ]},
    {"compound": "O=P1(N(CCCl)CCCl)NCCCO1", "note": "(stereo not drawn) [Cyclophosphamide]", "values": [
      {"measurement": "total WBC restoration, % of the difference between the nadir value and the control value", "setting": "Balb/C mice [2]; CP 200 mg/kg alone", "result": 45, "unit": "%"},
      {"measurement": "Percentage of Granulocytes in Control", "setting": "Balb/C mice [2]; cyclophosphamide 200 mg/kg alone, blood", "result": 1, "unit": "%"}
    ]},
    {"compound": "concanavalin A", "values": [
      {"measurement": "effect of proteinase K treatment on mitogenic activity", "setting": "[3]", "result": "completely inactivate"}
    ]},
    {"compound": "rhGM-CSF: Recombinant human granulocyte macrophage-colony stimulating factor", "values": [
      {"measurement": "activated sub-population (Mac-1+, CD14+), % of total cells", "setting": "human bone marrow cells", "result": 9, "unit": "%"}
    ]}
  ]
}
